According to patent US7265152B2 (ViroPharma Incorporated, priority 2002, dated 2007):
Where two headings read alike, the source gives them in different places.

Experiments:
[1] = test system: HCV replicon (BB7 sequence) in Huh-7-Clone A cells; assay: HCV replicon assay: ELISA of NS5A protein in replicon-containing cells (Inhibition of Viral RNA Replication); format: cell-based; conditions: read-out: Replicon
Excerpt: Antiviral activity of representative compounds of the invention was first evaluated in a human liver-derived cell line (Huh-7-Clone A) containing the HCV replicon (BB7 sequence) (See Lohmann et al. Science. 1999, 285:110-3; Blight K J et al., Science. 2000, 290:1972-4; Pietschmann, T. et al., J. Virol. 2001, 73:1252-1264; and Lohmann, V. et al., J. Virol. 2001, 75:1437-1449). The HCV replicon is a subgenomic viral RNA that expresses the HCV proteins required for its own replication. These proteins include non-structural proteins NS3, NS4A, NS4B, NS5A and NS5B. The replicon also contains a foreign gene encoding a drug-selectable marker (neomycin phosphotransferase) to allow for G418 (neomycin) selection of cells that contain the replicon.
An ELISA (enzyme-linked immunosorbant assay) was used to determine the effect of compounds within the scope of the invention on the amount of HCV NS5A protein produced after a 72-hour incubation of the replicon-containing cells in the presence of varying concentrations of compound. COSTAR® 96-well cell culture plates were used but other known cell culture plates may be used. After incubation, media is removed from wells and the cells are fixed to the assay plate using 0.05% glutaraldehyde. The glutaraldehyde is then washed off using phosphate-buffered saline (PBS) following a 1 hour incubation and cells are blocked for non-specific antibody binding using for example SUPERBLOCK® reagent (blocking buffer) in PBS. The blocking agent is rinsed from the cells with PBS after 1 hour at 37° C. and primary monoclonal antibody is added to each well containing compound. Primary antibody is incubated for 1 hour at 37° C. and rinsed 3 times with PBS containing 0.02% TWEEN-20™ before addition of Horseradish Peroxidase (HRP) conjugated secondary antibody. HRP is incubated for 1 hour at 37° C. and rinsed several times, first with PBS/TWEEN-20™ followed by PBS alone. To quantify peroxidase activity, 3,3′,5, 5′-tetramethylbenzidine (TMB) substrate is added to the plate and after 30 minutes, the plates are read in an ELISA plate reader at an OD of 650 nm. Compound dose response was measured in an 8-point dose curve diluted serially to determine the inhibitory concentration at 50% (EC50 value). […] Ranges of 50% effective concentrations (EC50s) for representative compounds within the scope of this invention are listed in Table 1. Preferred compounds have 50% effective concentrations at about 30 μM or less, more preferred compounds have 50% effective concentrations at about 5 μM or less, and most preferred compounds have 50% effective concentrations at about 0.5 μM or less.

HCV NS5B = target: T1, HCV NS5B (Hepatitis C virus genotype 1b, UniProt Q9WMX2); assay: Inhibition of viral RNA-dependent RNA polymerase (RdRp), in vitro biochemical assay; parameters: species or system HCV genotype 1b virus (BB7); conditions: read-out: HCV pol-BB7 IC50
T1 construct: fusion protein, of which the carboxyl terminal 21 amino acids were removed to enhance its solubility; His tag (GSHHHHHH); made in house; host or cells: E. coli
Excerpt: The HCV NS5B-directed RdRp activity was established and characterized in a standard in vitro biochemical assay using a purified HCV NS5B protein derived from the consensus sequence of a patient infected with HCV genotype 1b virus (BB7). (See Blight K J et al., Science. 2000, 290:1972-4). The NS5B consensus sequence was cloned and expressed in E. coli as a histidine tagged (GSHHHHHH) fusion protein, of which the carboxyl terminal 21 amino acids were removed to enhance its solubility.
In addition to evaluating their activity in the replicon assay, representative compounds within the scope of the present invention, as shown in examples 1-453 of Table 1, were also evaluated for antiviral activity using this assay. A measure of the inhibitory activity of compounds of the invention may be expressed as IC50 values. IC50 values represent the concentration of the compound at which 50% of the RdRp activity is inhibited. […] These low concentrations of test compounds required to achieve 50% inhibition of the RdRp activity indicate that the compounds of the invention are effective at inhibiting RNA synthesis by viral RdRp enzymes.

[2] = Hepatitis C virus, ranges of EC50 in HCV replicon assay
[3] = Hepatitis C virus, HCV replicon, range of EC50
[4] = HCV NS5B RdRp, BB7, reported as range class
[5] = Hepatitis C virus, HCV replicon assay, ranges of EC50
[6] = HCV NS5B RdRp, BB7, activity class
[7] = purified His-tagged NS5B (BB7), carboxyl terminal 21 amino acids removed
[8] = Hepatitis C virus, Huh-7-Clone A, NS5A ELISA, 72-hour incubation, ranges of EC50

CCOc1cc2c(C(=O)NC)c(-c3ccc(F)cc3)oc2cc1N1CCOCC1 [Example 166, 5-Ethoxy-2-(4-fluoro-phenyl)-6-morpholin-4-yl-benzofuran-3-carboxylic acid methylamide]
EC50 [1, 2]: < 10 µM | IC50 (HCV NS5B; HCV NS5B RdRp, BB7 genotype 1b): 0.5 to 5 µM

CNC(=O)c1c(-c2ccc(F)cc2)oc2cc(N(Cc3nsc(Cl)n3)S(C)(=O)=O)c(OC(C)C)cc12 [Example 234, 6-[(5-Chloro-[1,2,4]thiadiazol-3-ylmethyl)-methanesulfonyl-amino]-2-(4-fluoro-phenyl)-5-isopropoxy-benzofuran-3-carboxylic acid methylamide]
EC50 [1, 3]: < 10 µM | IC50 (HCV NS5B; [4]): ≤ 0.5 µM

CNC(=O)c1c(-c2ccc(F)cc2)oc2cc(N(C)S(C)(=O)=O)c(OCC3CC3)cc12 [Example 351, 5-Cyclopropylmethoxy-2-(4-fluoro-phenyl)-6-(methanesulfonyl-methyl-amino)-benzofuran-3-carboxylic acid methylamide]
EC50 [1, 5]: < 1 µM | IC50 (HCV NS5B; [6]): ≤ 0.5 µM

CNC(=O)c1c(-c2ccc(F)cc2)oc2cc(N3CCC(O)C3)c(OC(C)C)cc12 (stereo not shown) [Example 110]
EC50 [1, 2]: < 1 µM | IC50 (HCV NS5B; HCV NS5B RdRp, BB7 genotype 1b): ≤ 0.5 µM

6-(3-Amino-pyrrolidin-1-yl)-2-(4-fluoro-phenyl)-5-isopropoxy-2,3-dihydro-benzofuran-3-carboxylic acid methylamide [Example 15]
EC50 ([1]; Huh-7-Clone A, NS5A ELISA, 72-hour incubation, ranges of EC50): < 30 µM | IC50 (HCV NS5B; [7]): 5 to 30 µM

CNC(=O)c1c(-c2ccc(F)cc2)oc2cc(S(=O)(=O)N3CCC(O)C3)c(OC(C)C)cc12 (stereo not shown) [Example 176, 2-(4-Fluoro-phenyl)-6-(3-hydroxy-pyrrolidine-1-sulfonyl)-5-isopropoxy-benzofuran-3-carboxylic acid methylamide]
EC50 [1, 3]: < 1 µM | IC50 (HCV NS5B; [4]): ≤ 0.5 µM

CNC(=O)c1c(-c2ccc(F)cc2)oc2cc(N3CCC(S(C)(=O)=O)C3)c(OC(C)C)cc12 (stereo not shown) [Example 108, 2-(4-Fluoro-phenyl)-5-isopropoxy-6-(3-methanesulfonyl-pyrrolidin-1-yl)-benzofuran-3-carboxylic acid methylamide]
EC50 [1, 2]: < 1 µM | IC50 (HCV NS5B; HCV NS5B RdRp, BB7 genotype 1b): ≤ 0.5 µM

CCCCOc1ccc2oc(-c3ccccc3)c(C(=O)NC)c2c1 [Example 60, 5-Butoxy-2-phenyl-benzofuran-3-carboxylic acid methylamide]
EC50 [1, 8]: < 30 µM | IC50 (HCV NS5B; [7]): 0.5 to 5 µM

CNC(=O)c1c(-c2ccc(F)cc2)oc2cc(N3CCCC3)c(OC(C)C)cc12 [Example 6, 2-(4-Fluoro-phenyl)-5-isopropoxy-6-pyrrolidin-1-yl-benzofuran-3-carboxylic acid methylamide]
EC50 [1, 8]: < 1 µM | IC50 (HCV NS5B; [7]): ≤ 0.5 µM

CNC(=O)c1c(-c2ccc(F)cc2)oc2cc(N(C)S(C)(=O)=O)c(OCc3ccc(OC)cc3)cc12 [Example 327, 2-(4-Fluoro-phenyl)-6-(methanesulfonyl-methyl-amino)-5-(4-methoxy-benzyloxy)-benzofuran-3-carboxylic acid methylamide]
EC50 [1, 5]: < 1 µM | IC50 (HCV NS5B; HCV NS5B RdRp, BB7, class symbols A-D): ≤ 0.5 µM

CCNc1cc2oc(-c3ccc(F)cc3)c(C(=O)NC)c2c(Cl)c1OS(C)(=O)=O [Example 342, Methanesulfonic acid 4-chloro-6-ethylamino-2-(4-fluoro-phenyl)-3-methylcarbamoyl-benzofuran-5-yl ester]
EC50 [1, 5]: < 10 µM | IC50 (HCV NS5B; [6]): ≤ 0.5 µM

CNC(=O)c1c(-c2ccc(F)cc2)oc2cc(-c3ccn[nH]3)c(OC(C)C)cc12 [Example 230, 2-(4-Fluoro-phenyl)-5-isopropoxy-6-(2H-pyrazol-3-yl)-benzofuran-3-carboxylic acid methylamide]
EC50 [1, 3]: < 10 µM | IC50 (HCV NS5B; [4]): ≤ 0.5 µM

CNC(=O)c1c(-c2ccc(F)cc2)oc2cc(NS(C)(=O)=O)c(-c3c(C)noc3C)cc12 [Example 407, 5-(3,5-Dimethyl-isoxazol-4-yl)-2-(4-fluoro-phenyl)-6-methanesulfonylamino-benzofuran-3-carboxylic acid methylamide]
EC50 ([1]; Hepatitis C virus, HCV replicon assay, ranges of 50% effective concentration (EC50)): < 10 µM
